Assay results as given in ChEMBL document CHEMBL3351798, “Discovery of the CCR1 antagonist, BMS-817399, for the treatment of rheumatoid arthritis” (J Med Chem, 2014).
The source made the active and inactive calls. The rule behind the calls is not given here.

Columns and labels:
[1] = target: Voltage-gated inwardly rectifying potassium channel KCNH2 (Homo sapiens, UniProt Q12809); assay: Inhibition of human ERG
[2] = Bioavailability in cynomolgus monkey at 5 mg/kg; format: ADME, organism-based, Macaca fascicularis; details: in vivo
[3] = target: C-C chemokine receptor type 5 (Homo sapiens) (UniProt P51681); assay: Binding affinity to CCR5 receptor (unknown origin)
Chain of C-C chemokine receptor type 5 (Homo sapiens) (P51681 whole entry, looked up): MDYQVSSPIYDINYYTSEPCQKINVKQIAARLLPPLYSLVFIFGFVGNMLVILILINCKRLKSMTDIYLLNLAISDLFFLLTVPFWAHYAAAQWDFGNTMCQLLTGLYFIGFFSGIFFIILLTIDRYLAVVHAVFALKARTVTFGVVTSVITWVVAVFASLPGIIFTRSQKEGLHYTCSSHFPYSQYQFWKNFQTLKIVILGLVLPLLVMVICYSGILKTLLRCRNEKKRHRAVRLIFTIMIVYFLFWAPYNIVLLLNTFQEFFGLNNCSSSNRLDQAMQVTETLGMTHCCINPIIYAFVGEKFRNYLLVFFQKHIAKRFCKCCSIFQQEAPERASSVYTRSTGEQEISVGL

[4] = target: T1, C-C chemokine receptor type 1 (Homo sapiens, UniProt P32246); assay: Displacement of [125I]MIP-1alpha from CCR1 in human THP1 cells; format: cell-based, THP-1
T1 sequence (P32246 whole entry): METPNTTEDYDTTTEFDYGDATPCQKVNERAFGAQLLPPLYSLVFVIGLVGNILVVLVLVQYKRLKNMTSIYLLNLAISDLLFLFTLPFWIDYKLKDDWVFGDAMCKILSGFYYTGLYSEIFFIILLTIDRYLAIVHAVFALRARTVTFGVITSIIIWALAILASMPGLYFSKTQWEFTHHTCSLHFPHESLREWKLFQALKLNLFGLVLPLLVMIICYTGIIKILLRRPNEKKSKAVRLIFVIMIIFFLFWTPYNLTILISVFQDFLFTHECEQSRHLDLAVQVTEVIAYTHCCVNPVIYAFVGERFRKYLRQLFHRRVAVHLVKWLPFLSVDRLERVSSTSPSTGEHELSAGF

[5] = target: T1, C-C chemokine receptor type 1; assay: Displacement of [125I]hMIP-1alpha from CCR1 in human PBMC
Homo sapiens = organism: Homo sapiens; assay: Inhibition of Na+ channel (unknown origin)
[6] = target: T2, C-C chemokine receptor type 3 (Homo sapiens) (UniProt P51677); assay: Binding affinity to CCR3 receptor (unknown origin)
T2 sequence (whole entry): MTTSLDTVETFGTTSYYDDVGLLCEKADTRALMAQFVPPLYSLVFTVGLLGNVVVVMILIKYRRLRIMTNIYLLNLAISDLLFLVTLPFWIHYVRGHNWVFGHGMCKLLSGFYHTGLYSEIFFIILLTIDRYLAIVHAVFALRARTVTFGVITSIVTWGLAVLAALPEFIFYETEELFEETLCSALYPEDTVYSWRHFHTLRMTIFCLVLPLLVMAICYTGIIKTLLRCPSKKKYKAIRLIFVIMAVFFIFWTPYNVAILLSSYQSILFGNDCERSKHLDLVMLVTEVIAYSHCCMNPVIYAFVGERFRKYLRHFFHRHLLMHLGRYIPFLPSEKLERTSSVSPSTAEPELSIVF

[7] = Displacement of [125I]hMIP-1alpha from rat CCR1
[8] = target: T1, C-C chemokine receptor type 1; assay: Antagonist activity at CCR1 receptor in human whole blood assessed as blocked of MIP-1alpha-mediated CD11b upregulation preincubated for 1 hr
[9] = Bioavailability in dog at 5 mg/kg; format: ADME, organism-based, Canis lupus familiaris; details: in vivo
[10] = Metabolic stability in rat liver microsomes assessed as compound remaining at 0.5 uM after 60 mins by UV-LC/MS analysis; format: ADME; details: read-out: Stability
[11] = Metabolic stability in human liver microsomes assessed as compound remaining at 0.5 uM after 60 mins by UV-LC/MS analysis; format: ADME; details: read-out: Stability
[12] = Unbound fraction in human serum; format: ADME, cell-free
[13] = Displacement of [125I]hMIP-1alpha from monkey PBMC CCR1; set-up: species or system Macaca mulatta
[14] = Metabolic stability in mouse liver microsomes assessed as compound remaining at 0.5 uM after 60 mins by UV-LC/MS analysis; format: ADME; details: read-out: Stability
[15] = target: T3, Chemokine (C-C motif) receptor 1 (Canis lupus familiaris, UniProt Q2V0Q7); assay: Displacement of [125I]hMIP-1alpha from dog PBMC CCR1
T3 sequence (Q2V0Q7 whole entry): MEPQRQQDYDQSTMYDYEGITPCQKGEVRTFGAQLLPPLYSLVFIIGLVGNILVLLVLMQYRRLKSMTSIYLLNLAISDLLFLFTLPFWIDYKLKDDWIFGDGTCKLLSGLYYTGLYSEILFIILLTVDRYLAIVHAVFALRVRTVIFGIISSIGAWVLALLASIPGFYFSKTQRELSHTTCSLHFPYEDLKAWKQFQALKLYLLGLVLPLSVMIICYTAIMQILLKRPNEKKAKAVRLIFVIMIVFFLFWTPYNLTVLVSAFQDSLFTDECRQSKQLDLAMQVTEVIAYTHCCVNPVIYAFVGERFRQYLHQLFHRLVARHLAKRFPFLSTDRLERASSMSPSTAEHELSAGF

Chain of Voltage-gated inwardly rectifying potassium channel KCNH2 (Q12809 whole entry): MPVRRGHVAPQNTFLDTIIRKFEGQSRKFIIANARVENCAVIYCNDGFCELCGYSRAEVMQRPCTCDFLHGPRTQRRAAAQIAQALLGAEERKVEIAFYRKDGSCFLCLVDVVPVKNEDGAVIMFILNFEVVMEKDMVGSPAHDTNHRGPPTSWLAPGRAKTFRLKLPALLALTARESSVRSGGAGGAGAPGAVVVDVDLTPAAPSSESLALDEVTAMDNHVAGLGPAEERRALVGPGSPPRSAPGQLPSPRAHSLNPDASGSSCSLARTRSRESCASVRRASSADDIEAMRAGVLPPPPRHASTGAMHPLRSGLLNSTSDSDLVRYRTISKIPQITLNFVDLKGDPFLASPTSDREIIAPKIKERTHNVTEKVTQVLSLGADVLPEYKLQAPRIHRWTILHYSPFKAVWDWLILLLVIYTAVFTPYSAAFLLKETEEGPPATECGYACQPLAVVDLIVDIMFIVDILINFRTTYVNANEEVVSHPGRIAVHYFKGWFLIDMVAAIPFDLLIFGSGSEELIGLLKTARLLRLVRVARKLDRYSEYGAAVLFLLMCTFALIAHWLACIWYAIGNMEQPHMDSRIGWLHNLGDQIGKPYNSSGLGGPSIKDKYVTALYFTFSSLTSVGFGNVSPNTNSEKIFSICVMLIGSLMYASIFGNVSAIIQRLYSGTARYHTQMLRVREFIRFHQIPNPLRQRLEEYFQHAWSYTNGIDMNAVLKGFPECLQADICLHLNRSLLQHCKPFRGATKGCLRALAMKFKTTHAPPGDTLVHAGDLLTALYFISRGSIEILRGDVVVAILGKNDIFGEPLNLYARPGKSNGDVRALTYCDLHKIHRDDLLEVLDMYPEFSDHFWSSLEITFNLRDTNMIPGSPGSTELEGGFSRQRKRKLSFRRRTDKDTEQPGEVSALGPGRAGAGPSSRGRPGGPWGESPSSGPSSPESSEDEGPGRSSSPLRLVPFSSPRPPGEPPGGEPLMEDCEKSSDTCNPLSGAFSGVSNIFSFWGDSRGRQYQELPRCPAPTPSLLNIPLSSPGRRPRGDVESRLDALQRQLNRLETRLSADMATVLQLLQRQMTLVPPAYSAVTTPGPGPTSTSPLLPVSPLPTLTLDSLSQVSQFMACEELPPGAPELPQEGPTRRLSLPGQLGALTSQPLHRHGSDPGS

For `CC(C)[C@@H](NC(=O)NCC(C)(C)O)C(=O)N1CC[C@](O)(c2ccc(Cl)cc2)C(C)(C)C1` [BMS-817399], which “inhibition (INH)” value [1] is on record?
Its value is “Not Active”.

And the bioavailability [2]?
Its bioavailability is 40%.

And the Activity [3]?
Its Activity is “inactive”.

What about the IC50 [4] of the same compound?
Its IC50 is 1 nM.

What about the IC50 [5] of the same compound?
The IC50 was 4.2 nM.

What about the inhibition (Homo sapiens) of the same compound?
The inhibition was “inactive”.

And the Activity [6]?
The Activity was “inactive”.

And the IC50 [7]?
The IC50 was > 50 µM.

And the IC50 [8]?
Its IC50 is 25 nM.

And the bioavailability [9]?
Its bioavailability is 100%.

And the remaining at 1 h, 0.5 µM [10]?
Its remaining at 1 h, 0.5 µM is 74%.

What about the remaining at 1 h, 0.5 µM [11] of the same compound?
Its remaining at 1 h, 0.5 µM is 100%.

And the fraction unbound [12]?
The fraction unbound was 0.19.

What about the IC50 [13] of the same compound?
Its IC50 is > 50 µM.

What about the remaining at 1 h, 0.5 µM [14] of the same compound?
Its remaining at 1 h, 0.5 µM is 86%.

And the IC50 [15]?
Its IC50 is 635 nM.
